Reference: ChEMBL document CHEMBL1131369, “Isoxazolylthioamides as potential immunosuppressants a combinatorial chemistry approach” (Bioorg Med Chem Lett, 1998)
pIC50: −log10 of the molar value.

What was measured:
[1] = target: Dihydroorotate dehydrogenase (quinone), mitochondrial (Homo sapiens, UniProt Q02127); experiment: Immunosuppressive activity expressed as ability to inhibit human recombinant dihydroorotate dehydrogenase (DHODH)
Mus musculus = species on record: Mus musculus; experiment: Compound was tested in vitro for immunosuppressive activity which was measured in the mouse mixed lymphocyte reaction; assay type: functional

Sequence of Dihydroorotate dehydrogenase (quinone), mitochondrial (Q02127 whole entry): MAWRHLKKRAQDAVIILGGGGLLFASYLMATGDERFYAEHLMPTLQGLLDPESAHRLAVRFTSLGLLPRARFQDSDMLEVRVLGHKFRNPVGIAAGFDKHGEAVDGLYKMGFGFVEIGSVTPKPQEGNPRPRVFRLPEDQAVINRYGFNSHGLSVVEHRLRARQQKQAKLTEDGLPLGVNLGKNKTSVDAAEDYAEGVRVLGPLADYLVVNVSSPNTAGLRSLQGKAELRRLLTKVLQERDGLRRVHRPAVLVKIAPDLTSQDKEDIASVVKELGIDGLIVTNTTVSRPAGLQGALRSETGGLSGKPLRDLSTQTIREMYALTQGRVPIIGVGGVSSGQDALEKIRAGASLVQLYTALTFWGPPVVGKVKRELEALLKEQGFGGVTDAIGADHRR

Row | SMILES | pIC50 [1] | pIC50 (Mus musculus)
1 | CCc1oncc1/C(S)=N/c1ccc(C(F)(F)F)cc1 | 5.52 | –
2 | CC(C)(C)c1oncc1/C(S)=N/c1ccc(C(F)(F)F)cc1 | < 4.30 | –
3 | CN(C)c1ccc(NC(=S)c2cnoc2C2CCCCC2)cc1 | < 4.30 | –
4 | N#Cc1ccc(NC(=S)c2cnoc2C2CC2)cc1 | 5.03 | –
5 | CN(C)c1ccc(NC(=S)c2cnoc2C(C)(C)C)cc1 | < 4.30 | –
6 | CCCCCCc1oncc1/C(S)=N/c1ccc(C(F)(F)F)cc1 | < 4.30 | –
7 | FC(F)(F)Oc1ccc(NC(=S)c2cnoc2C2CC2)cc1 | 6.10 | –
8 | CCc1oncc1/C(S)=N/c1ccc(N(C)C)cc1 | 4.39 | –
9 | CC(C)(C)c1oncc1/C(S)=N/c1ccc(C#N)cc1 | < 4.30 | –
10 | Cc1oncc1/C(S)=N/c1ccc(OC(F)(F)F)cc1 | 5.14 | –
11 | FC(F)(F)c1ccc(NC(=S)c2cnoc2C2CC2)cc1 | 5.49 | –
12 | CCc1oncc1C(=S)Nc1ccc(C#N)cc1 | 4.96 | –
13 | N#Cc1ccc(NC(=S)c2cnoc2C2CCCCC2)cc1 | < 4.30 | –
14 | FC(F)(F)c1ccc(NC(=S)c2cnoc2C2CCCCC2)cc1 | < 4.30 | –
15 | CCCCCCc1oncc1C(=S)Nc1ccc(N(C)C)cc1 | < 4.30 | –
16 | CCCCCCc1oncc1C(=S)Nc1ccc(C#N)cc1 | < 4.30 | –

Now from value to compound:

Row | pIC50 [1] | pIC50 (Mus musculus) | SMILES
17 | < 4.30 | – | FC(F)(F)Oc1ccc(NC(=S)c2cnoc2C2CCCCC2)cc1
18 | 4.46 | – | Cc1oncc1C(=S)Nc1ccc(C#N)cc1
19 | 6.15 | – | CCc1oncc1/C(S)=N/c1ccc(OC(F)(F)F)cc1
20 | < 4.30 | – | CN(C)c1ccc(NC(=S)c2cnoc2C2CC2)cc1
21 | < 4.30 | – | CCCCCCc1oncc1/C(S)=N/c1ccc(OC(F)(F)F)cc1
22 | < 4.30 | 4.64 | Cc1oncc1C(=S)Nc1ccc(C(F)(F)F)cc1
23 | < 4.30 | – | Cc1oncc1C(=S)Nc1ccc(N(C)C)cc1
24 | 6.10 | 4.96 | CC(=O)/C(C#N)=C(/S)Nc1ccc(C(F)(F)F)cc1
25 | < 4.30 | – | CC(C)(C)c1oncc1C(=S)Nc1ccc(OC(F)(F)F)cc1
26 | – | 5.00 | C/C(O)=C(/C#N)C(=O)Nc1ccc(C(F)(F)F)cc1
